For assay [1], the target named is T1, AT1 receptor of angiotensin II (Rattus norvegicus, UniProt P25095).
T1 construct: A fresh membrane preparation obtained from rat's liver is used; from tissue; host or cells: rat liver membranes
T1 sequence (P25095 1-359): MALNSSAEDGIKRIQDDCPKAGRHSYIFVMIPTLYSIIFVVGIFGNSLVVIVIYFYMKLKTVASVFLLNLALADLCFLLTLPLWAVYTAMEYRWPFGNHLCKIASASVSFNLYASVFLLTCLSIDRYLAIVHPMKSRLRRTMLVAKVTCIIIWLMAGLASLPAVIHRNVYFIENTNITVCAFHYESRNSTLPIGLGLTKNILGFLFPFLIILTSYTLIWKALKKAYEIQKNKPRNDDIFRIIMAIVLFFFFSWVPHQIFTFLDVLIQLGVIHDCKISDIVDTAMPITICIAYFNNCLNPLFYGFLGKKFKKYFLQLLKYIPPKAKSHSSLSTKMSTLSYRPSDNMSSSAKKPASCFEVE
Briefly: Test on the AT1 receptor of angiotensin II (displacement of 125I angiotensin II, rat liver membranes). Format: binding. Particulars: rat liver membrane, 125I angiotensin II, 25° C., 150 minutes; read-out: AT1 Receptor IC50. As to the method: 1 - Test on the AT1 -receptor of angiotensin II
A fresh membrane preparation obtained from rat's liver is used. The tissue is ground up in a polytron in a 50 mM Tris buffer pH 7.4, the grinding is followed by 3 centrifugations at 30,000 g for 15 minutes with intermediate take up of the pellets in the Tris buffer pH 7.4.
(The product is first tested with 3×10^-5 M three times). When the tested product displaces more than 50% of the radioactivity specifically bound to the receptor, it is tested again according to a range of 7 concentrations in order to determine the concentration which inhibits by 50% the radioactivity specifically bound to the receptor. In this way the 50% inhibitory concentration is determined).
(§1) After incubation at 25° C. for 150 minutes, placing in a water-bath at 0° C. for 5 minutes, filtration under vacuum, and rinsing with Tris buffer pH 7.4, the radioactivity is counted in the presence of a scintillating solid.
In general terms: Loss of bound radioactivity is the signal in a displacement assay; it reports binding, not function.

Assay [2] concerns the target T2, AT2 receptor of angiotensin II (Oryctolagus cuniculus, UniProt G1T351).
T2 construct: A fresh membrane preparation obtained from rabbit's uterus is used; from tissue; host or cells: uterus membranes of estradiol-treated rabbits
T2 sequence (G1T351 1-363): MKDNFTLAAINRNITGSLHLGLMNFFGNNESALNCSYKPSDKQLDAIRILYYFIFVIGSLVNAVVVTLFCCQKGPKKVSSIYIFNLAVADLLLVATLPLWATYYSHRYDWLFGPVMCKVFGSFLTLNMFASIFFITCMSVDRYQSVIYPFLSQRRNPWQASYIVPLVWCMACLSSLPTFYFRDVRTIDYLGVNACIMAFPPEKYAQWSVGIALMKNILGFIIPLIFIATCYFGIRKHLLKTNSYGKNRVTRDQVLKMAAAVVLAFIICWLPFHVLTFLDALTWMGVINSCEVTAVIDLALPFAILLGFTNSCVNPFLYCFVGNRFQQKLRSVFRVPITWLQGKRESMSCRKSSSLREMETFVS
The assay is described as follows: Test on the AT2 receptor of angiotensin II (displacement of 125I angiotensin II, rabbit uterus membranes). Format: binding. The note with it: rabbit uterus membrane (estradiol pre-treated), 125I angiotensin II, 25° C., 150 minutes; read-out: AT2 Receptor IC50. On the procedure: 2) Test on the AT2 receptor of angiotensin II
The tissue is ground up in a polytron in a 50 mM Tris buffer pH 7.4, and the grinding is followed by 3 centrifugations at 30,000 g for 15 minutes, with intermediate take up of the pellets in the Tris buffer pH 7.4.
The homogenate obtained is preincubated for 20 minutes at 25° C. in the presence of 10 mM dithiothreitol, then brought back to 0°-4° C.
The product is first tested at 3.10^-5 M three times. When the tested product displaces more than 50% of the radioactivity specifically bound to the receptor, it is tested again according to a range of 7 concentrations in order to determine the concentration which inhibits by 50% the radioactivity specifically bound to the receptor. In this way the 50% inhibitory concentration is determined.
as §1

The subject of assay [3] is angiotensin II (pressure effects). The assay is described as follows: Test for antagonistic activity of angiotensin II in the demedullated rat. Type of assay: in vivo, Male Sprague-Dawley rats. The note with it: IV, inhibition of pressure effects of angiotensin II (0.75 micrograms/kg), read-out: ID50 IV. As to the method: 3 - Test for antagonistic activity of angiotensin II in the demedullated rat
Male Sprague-Dawley rats (250 to 350 g) are anaesthetized by an intraperitoneal injection with sodium pentobarbital (60 mg/kg). The diastolic arterial pressure is recorded by means of a heparin catheter (PE50) introduced into the left carotid of the animal, and connected to a pressure processor (Gould, Pressure Processor) via a Gould pressure sensor.
A catheter is introduced into the right jugular vein of the animal in order to allow injection of the molecules being studied.
The animal is placed under assisted respiration. A bilateral section of the vagus nerves is carried out. The rat is then demedullated.
After a sufficient stabilization period, study of the antagonism of the molecules vis-a-vis angiotensin II (Hypertensin, CIBA) is carried out in the following manner:
1 - Three consecutive injections of angiotensin II (0.75 micrograms/kg) 15 minutes apart allow a reproducible and stable pressure response to be obtained.
2 - While maintaining a periodicity of 15 minutes for the administration of angiotensin II, the molecules (0.01 to 10 mg/kg) are injected 5 minutes before the angiotensin II.
The pressure effects of angiotensin II in the presence of the antagonist are expressed as a percentage of the pressure effects of angiotensin II administered alone. The 50% inhibitory dose (ID50) of the effect studied is thus determined.
Each animal is considered as its own control.

Assay [4] has the same test system. The assay is described as above. Format: in vivo, Male Sprague-Dawley rats. The note with it: PO, inhibition of pressure effects of angiotensin II (0.75 micrograms/kg), read-out: ID50 PO.

The text below walks through data of US5811445A, “Method of preventing abnormal stimulation of AT1 and AT2 receptors” (Roussel Uclaf, priority 1994, dated 1998).

Where two headings read alike, the source gives them in different places.

The term IC50 denotes the midpoint of a concentration-inhibition curve.

For the molecule `CCCc1nc(SC(F)F)c(C(=O)O)n1Cc1ccc(-c2ccccc2S(=O)(=O)NC(=O)NCC2CCCCC2)cc1` [Example 45, 1-((2'-(((((cyclohexylmethyl)amino)carbonyl)amino)sulphonyl) (1,1'-biphenyl 4-yl)methyl) 4-(difluoromethyl)thio) 2-propyl 1H-imidazole 5-carboxylic acid], the IC50 is 0.07 nM in assay [1] and 1.7 nM in assay [2]. For the same molecule, the results for the ED50 in assay [3] and in assay [4] were 0.22 mg/kg and 1.1 mg/kg, respectively.
As to `CCCc1nc(SC(F)F)c(C(=O)O)n1Cc1ccc(-c2ccccc2S(=O)(=O)NC(=O)NCc2ccccc2)cc1` [Example 46, 4-((difluoromethyl)thio) 1-((2'-(((((phenylmethyl)amino)carbonyl)amino)sulphonyl) (1,1'-biphenyl) 4-yl)methyl) 2-propyl 1H-imidazole 5-carboxylic acid], the IC50 was 0.11 nM in assay [1] and 0.26 nM in assay [2]. Also, the ED50 came out at 0.26 mg/kg in assay [3] and 2 mg/kg in assay [4].
